# Experimental data from US7973061B2, “Anaplastic lymphoma kinase modulators and methods of use” (Exelixis, Inc., priority 2004, dated 2011).
# Biological target: T1, ALK (baculovirus expressed human ALK kinase domain F1098-K1410) (Homo sapiens, UniProt Q9UM73)
# T1 construct: human ALK kinase domain F1098-K1410; made in house
# Experiment: biochemical
# Conditions: 1 μM ATP, 4 μM poly-AEKY, 12 nM ALK, 2 hours at ambient temperature; read-out: ALK IC50
# Outline: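 Inhibitors were tested at 10 concentrations, and IC50 was derived from a sigmoidal fit (Min, Max, Hill slope). Kinase activity was measured as percent ATP left after a 2 h reaction at room temperature, detected by luciferase-luciferin chemiluminescence. The ATP level was set close to KM for the ALK kinase domain F1098-K1410.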
# T1 sequence (Q9UM73 1098-1410): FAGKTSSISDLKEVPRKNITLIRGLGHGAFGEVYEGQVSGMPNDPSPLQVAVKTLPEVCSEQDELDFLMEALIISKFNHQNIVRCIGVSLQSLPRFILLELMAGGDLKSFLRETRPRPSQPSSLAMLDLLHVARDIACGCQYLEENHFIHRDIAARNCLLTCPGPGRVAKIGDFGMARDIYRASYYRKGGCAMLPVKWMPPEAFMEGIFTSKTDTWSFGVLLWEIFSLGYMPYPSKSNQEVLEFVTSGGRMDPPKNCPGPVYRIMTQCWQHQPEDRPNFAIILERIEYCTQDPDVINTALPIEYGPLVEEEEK
compound,measurement,value
"C#CC1(NC(=O)c2csc(CNC(=O)COc3ccc(OC(F)(F)F)cc3)n2)CCCCC1 [Entry 180, N-(1-ethynylcyclohexyl)-2-({[({4-[(trifluoromethyl)oxy]phenyl}oxy)acetyl]amino}methyl)-1,3-thiazole-4-carboxamide]",IC50,50 to 500 nM
"CC1CCCCC1NC(=O)c1csc(CNC(=O)COc2ccc(OC(F)(F)F)cc2)n1 (stereo not drawn) [Entry 87, N-(2-methylcyclohexyl)-2-({[({4-[(trifluoromethyl)oxy]phenyl}oxy)acetyl]amino}methyl)-1,3-thiazole-4-carboxamide]",IC50,50 to 500 nM
"O=C(COc1ccc(OC(F)(F)F)cc1)NCc1nc(C(=O)NCCN2CCOCC2)cs1 [Entry 205, N-(2-morpholin-4-ylethyl)-2-({[({4-[(trifluoromethyl)oxy]phenyl}oxy)acetyl]amino}methyl)-1,3-thiazole-4-carboxamide]",IC50,50 to 500 nM
"CC(C)CCCCCCNC(=O)c1csc(CNC(=O)COc2ccc(OC(F)(F)F)cc2)n1 [Entry 189, N-(7-methyloctyl)-2-({[({4-[(trifluoromethyl)oxy]phenyl}oxy)acetyl]amino}methyl)-1,3-thiazole-4-carboxamide]",IC50,50 to 500 nM
"O=C(COc1ccc(OC(F)(F)F)cc1)NCc1nc(C(=O)NCCc2ccncc2)co1 [Entry 219, N-(2-pyridin-4-ylethyl)-2-({[({4-[(trifluoromethyl)oxy]phenyl}oxy)acetyl]amino}methyl)-1,3-oxazole-4-carboxamide]",IC50,500 to 2000 nM
"COc1cccc(CNC(=O)c2csc(CNC(=O)COc3ccc(C(C)C)cc3)n2)c1OC [Entry 125, N-{[2,3-bis(methyloxy)phenyl]methyl}-2-{[({[4-(1-methylethyl)phenyl]oxy}acetyl)amino]methyl}-1,3-thiazole-4-carboxamide]",IC50,50 to 500 nM
"CSc1ccccc1CNC(=O)c1coc(CNC(=O)COc2ccc(OC(F)(F)F)cc2)n1 [Entry 186, N-{[2-(methylthio)phenyl]methyl}-2-({[({4-[(trifluoromethyl)oxy]phenyl}oxy)acetyl]amino}methyl)-1,3-oxazole-4-carboxamide]",IC50,50 to 500 nM
"O=C(COc1ccc(OC(F)(F)F)cc1)NCc1nc(C(=O)NCCc2ccc(Cl)cc2)co1 [Entry 246, N-[2-(4-chlorophenyl)ethyl]-2-({[({4-[(trifluoromethyl)oxy]phenyl}oxy)acetyl]amino}methyl)-1,3-oxazole-4-carboxamide]",IC50,500 to 2000 nM
"CC(NC(=O)c1csc(CNC(=O)COc2ccc(OC(F)(F)F)cc2)n1)c1ccc(Br)cc1 (stereo not drawn) [Entry 204, N-[1-(4-bromophenyl)ethyl]-2-({[({4-[(trifluoromethyl)oxy]phenyl}oxy)acetyl]amino}methyl)-1,3-thiazole-4-carboxamide]",IC50,50 to 500 nM
"O=C(COc1ccc(OC(F)(F)F)cc1)NCc1nc(C(=O)NCc2ccccc2OC(F)(F)F)cs1 [Entry 57, N-({2-[(trifluoromethyl)oxy]phenyl}methyl)-2-({[({4-[(trifluoromethyl)oxy]phenyl}oxy)acetyl]amino}methyl)-1,3-thiazole-4-carboxamide]",IC50,50 to 500 nM
"O=C(COc1ccc(OC(F)(F)F)cc1)NCc1nc(C(=O)N2Cc3ccccc3C2)cs1 [Entry 3, N-{[4-(1,3-dihydro-2H-isoindol-2-ylcarbonyl)-1,3-thiazol-2-yl]methyl}-2-({4-[(trifluoromethyl)oxy]phenyl}oxy)acetamide]",IC50,< 50 nM
"CCCCC(CC)CNC(=O)c1csc(CNC(=O)COc2ccc(OC(F)(F)F)cc2)n1 (stereo not drawn) [Entry 200, N-(2-ethylhexyl)-2-({[({4-[(trifluoromethyl)oxy]phenyl}oxy)acetyl]amino}methyl)-1,3-thiazole-4-carboxamide]",IC50,50 to 500 nM
"COc1ccccc1CNC(=O)c1csc(CNC(=O)Cc2ccc(C(C)C)cc2)n1 [Entry 192, 2-[({[4-(1-methylethyl)phenyl]acetyl}amino)methyl]-N-{[2-(methyloxy)phenyl]methyl}-1,3-thiazole-4-carboxamide]",IC50,50 to 500 nM
"CCN(CCNC(=O)c1csc(CNC(=O)COc2ccc(OC(F)(F)F)cc2)n1)c1cccc(C)c1 [Entry 124, N-{2-[ethyl(3-methylphenyl)amino]ethyl}-2-({[({4-[(trifluoromethyl)oxy]phenyl}oxy)acetyl]amino}methyl)-1,3-thiazole-4-carboxamide]",IC50,50 to 500 nM
"CC(C)c1ccc(NC(=O)NCc2nc(C(=O)NCCc3ccccc3F)cs2)cc1 [Entry 27, N-[2-(2-fluorophenyl)ethyl]-2-{[({[4-(1-methylethyl)phenyl]amino}carbonyl)amino]methyl}-1,3-thiazole-4-carboxamide]",IC50,< 50 nM
"O=C(COc1ccc(OC(F)(F)F)cc1)NCc1nc(C(=O)NCCc2cccc(Cl)c2)co1 [Entry 31, N-[2-(3-chlorophenyl)ethyl]-2-({[({4-[(trifluoromethyl)oxy]phenyl}oxy)acetyl]amino}methyl)-1,3-oxazole-4-carboxamide]",IC50,50 to 500 nM
"CC1CCCCC1NC(=O)c1coc(CNC(=O)COc2ccc(OC(F)(F)F)cc2)n1 (stereo not drawn) [Entry 257, N-(2-methylcyclohexyl)-2-({[({4-[(trifluoromethyl)oxy]phenyl}oxy)acetyl]amino}methyl)-1,3-oxazole-4-carboxamide]",IC50,500 to 2000 nM
"O=C(COc1ccc(OC(F)(F)F)cc1)NCc1nc(C(=O)O)co1 [Entry 308, 2-({[({4-[(trifluoromethyl)oxy]phenyl}oxy)acetyl]amino}methyl)-1,3-oxazole-4-carboxylic acid]",IC50,> 2000 nM
"O=C(C/C=C/c1ccccc1)NCc1nc(C(=O)NCCc2ccccc2F)cs1 [Entry 276, N-[2-(2-fluorophenyl)ethyl]-2-({[(3E)-4-phenylbut-3-enoyl]amino}methyl)-1,3-thiazole-4-carboxamide]",IC50,500 to 2000 nM
"CN(C)Cc1ccc(CSCCNC(=O)c2csc(CNC(=O)COc3ccc(OC(F)(F)F)cc3)n2)o1 [Entry 130, N-{2-[({5-[(dimethylamino)methyl]furan-2-yl}methyl)thio]ethyl}-2-({[({4-[(trifluoromethyl)oxy]phenyl}oxy)acetyl]amino}methyl)-1,3-thiazole-4-carboxamide]",IC50,50 to 500 nM
"CC(NC(=O)c1csc(CNC(=O)COc2ccc(OC(F)(F)F)cc2)n1)c1cccc2ccccc12 (stereo not drawn) [Entry 85, N-(1-naphthalen-1-ylethyl)-2-({[({4-[(trifluoromethyl)oxy]phenyl}oxy)acetyl]amino}methyl)-1,3-thiazole-4-carboxamide]",IC50,50 to 500 nM
"O=C(COc1ccc(OC(F)(F)F)cc1)NCc1nc(C(=O)NCc2cccc(C(F)(F)F)c2)cs1 [Entry 156, 2-({[({4-[(trifluoromethyl)oxy]phenyl}oxy)acetyl]amino}methyl)-N-{[3-(trifluoromethyl)phenyl]methyl}-1,3-thiazole-4-carboxamide]",IC50,50 to 500 nM
"O=C(COc1ccc(OC(F)(F)F)cc1)NCc1nc(C(=O)NCc2ccco2)cs1 [Entry 249, N-(furan-2-ylmethyl)-2-({[({4-[(trifluoromethyl)oxy]phenyl}oxy)acetyl]amino}methyl)-1,3-thiazole-4-carboxamide]",IC50,500 to 2000 nM
"O=C(NCCc1cccc(Cl)c1)c1csc(CNC(=O)c2cccnc2Oc2ccc(Cl)cc2)n1 [Entry 62, N-{[4-({[2-(3-chlorophenyl)ethyl]amino}carbonyl)-1,3-thiazol-2-yl]methyl}-2-[(4-chlorophenyl)oxy]pyridine-3-carboxamide]",IC50,50 to 500 nM
